# In ChEMBL document CHEMBL4421728, “Bach1 Inhibitors in Combination with Nrf2 Activators and Pharmaceutical Compositions Thereof” (2017):
# How the values were obtained:
# [1] = molecular target: T1, Transcription regulator protein BACH1 (Homo sapiens) (UniProt O14867); test: Inhibition of Bach1 in normal human lung fibroblasts assessed as induction of HMOX protein expression at 0.625 uM incubated for 16 to 18 hrs by immunostaining relative to control
# T1 sequence (whole entry): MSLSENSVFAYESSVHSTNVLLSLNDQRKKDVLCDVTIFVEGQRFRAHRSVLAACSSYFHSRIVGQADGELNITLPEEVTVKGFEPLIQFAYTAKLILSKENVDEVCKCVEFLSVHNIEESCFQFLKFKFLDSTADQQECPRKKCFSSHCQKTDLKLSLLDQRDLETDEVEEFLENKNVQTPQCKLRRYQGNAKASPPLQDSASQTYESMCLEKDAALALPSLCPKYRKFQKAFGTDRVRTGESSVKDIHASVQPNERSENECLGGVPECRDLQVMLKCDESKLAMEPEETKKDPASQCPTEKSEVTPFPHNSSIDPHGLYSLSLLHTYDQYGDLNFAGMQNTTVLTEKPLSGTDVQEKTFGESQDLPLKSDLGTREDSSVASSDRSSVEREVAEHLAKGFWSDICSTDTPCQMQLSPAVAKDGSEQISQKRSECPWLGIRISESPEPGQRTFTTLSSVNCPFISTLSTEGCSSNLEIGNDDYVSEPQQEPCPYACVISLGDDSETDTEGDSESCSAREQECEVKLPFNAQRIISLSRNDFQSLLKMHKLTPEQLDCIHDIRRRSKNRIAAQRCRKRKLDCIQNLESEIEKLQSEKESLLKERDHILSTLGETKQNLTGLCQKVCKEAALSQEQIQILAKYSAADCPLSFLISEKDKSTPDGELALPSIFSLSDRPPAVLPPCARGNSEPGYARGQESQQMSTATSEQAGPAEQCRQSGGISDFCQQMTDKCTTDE
# [2] = molecular target: T1, Transcription regulator protein BACH1 (Homo sapiens); test: Inhibition of Bach1 in normal human lung fibroblasts assessed as induction of HMOX protein expression at 5 uM incubated for 16 to 18 hrs by immunostaining relative to control
# [3] = molecular target: T1, Transcription regulator protein BACH1 (Homo sapiens); test: Inhibition of Bach1 in normal human lung fibroblasts assessed as induction of HMOX protein expression at 0.019 uM incubated for 16 to 18 hrs in presence of 0.0024 uM Nrf2 activator Bardoxolone methyl by immunostaining relative to control
# [4] = molecular target: T1, Transcription regulator protein BACH1 (Homo sapiens); test: Inhibition of Bach1 in normal human lung fibroblasts assessed as induction of HMOX protein expression at 0.039 uM incubated for 16 to 18 hrs in presence of 0.0024 uM Nrf2 activator Bardoxolone methyl by immunostaining relative to control
# [5] = molecular target: T1, Transcription regulator protein BACH1 (Homo sapiens); test: Inhibition of Bach1 in normal human lung fibroblasts assessed as induction of HMOX protein expression at 1.25 uM incubated for 16 to 18 hrs in presence of 0.0024 uM Nrf2 activator Bardoxolone methyl by immunostaining relative to control
# [6] = molecular target: T1, Transcription regulator protein BACH1 (Homo sapiens); test: Inhibition of Bach1 in normal human lung fibroblasts assessed as induction of HMOX protein expression at 0.019 uM incubated for 16 to 18 hrs in presence of 0.0048 uM Nrf2 activator Bardoxolone methyl by immunostaining relative to control
# [7] = molecular target: T1, Transcription regulator protein BACH1 (Homo sapiens); test: Inhibition of Bach1 in normal human lung fibroblasts assessed as induction of HMOX protein expression at 0.039 uM incubated for 16 to 18 hrs in presence of 0.0048 uM Nrf2 activator Bardoxolone methyl by immunostaining relative to control
# [8] = molecular target: T1, Transcription regulator protein BACH1 (Homo sapiens); test: Inhibition of Bach1 in normal human lung fibroblasts assessed as induction of HMOX protein expression at 0.078 uM incubated for 16 to 18 hrs in presence of 0.0048 uM Nrf2 activator Bardoxolone methyl by immunostaining relative to control
# [9] = molecular target: T1, Transcription regulator protein BACH1 (Homo sapiens); test: Inhibition of Bach1 in normal human lung fibroblasts assessed as induction of HMOX protein expression at 0.156 uM incubated for 16 to 18 hrs in presence of 0.0048 uM Nrf2 activator Bardoxolone methyl by immunostaining relative to control
# [10] = molecular target: T1, Transcription regulator protein BACH1 (Homo sapiens); test: Inhibition of Bach1 in normal human lung fibroblasts assessed as induction of HMOX protein expression at 0.312 uM incubated for 16 to 18 hrs in presence of 0.0048 uM Nrf2 activator Bardoxolone methyl by immunostaining relative to control
# [11] = molecular target: T1, Transcription regulator protein BACH1 (Homo sapiens); test: Inhibition of Bach1 in normal human lung fibroblasts assessed as induction of HMOX protein expression at 0.625 uM incubated for 16 to 18 hrs in presence of 0.0048 uM Nrf2 activator Bardoxolone methyl by immunostaining relative to control
# [12] = molecular target: T1, Transcription regulator protein BACH1 (Homo sapiens); test: Inhibition of Bach1 in normal human lung fibroblasts assessed as induction of HMOX protein expression at 0.039 uM incubated for 16 to 18 hrs in presence of 0.0097 uM Nrf2 activator Bardoxolone methyl by immunostaining relative to control
# [13] = molecular target: T1, Transcription regulator protein BACH1 (Homo sapiens); test: Inhibition of Bach1 in normal human lung fibroblasts assessed as induction of HMOX protein expression at 0.078 uM incubated for 16 to 18 hrs in presence of 0.019 uM Nrf2 activator Bardoxolone methyl by immunostaining relative to control
# [14] = molecular target: T1, Transcription regulator protein BACH1 (Homo sapiens); test: Inhibition of Bach1 in normal human lung fibroblasts assessed as induction of HMOX protein expression at 0.039 uM incubated for 16 to 18 hrs in presence of 0.039 uM Nrf2 activator Bardoxolone methyl by immunostaining relative to control
# [15] = molecular target: T1, Transcription regulator protein BACH1 (Homo sapiens); test: Inhibition of Bach1 in normal human lung fibroblasts assessed as induction of HMOX protein expression at 0.078 uM incubated for 16 to 18 hrs in presence of 0.039 uM Nrf2 activator Bardoxolone methyl by immunostaining relative to control
# [16] = molecular target: T1, Transcription regulator protein BACH1 (Homo sapiens); test: Inhibition of Bach1 in normal human lung fibroblasts assessed as induction of HMOX protein expression at 1.25 uM incubated for 16 to 18 hrs in presence of 0.039 uM Nrf2 activator Bardoxolone methyl by immunostaining relative to control
# [17] = molecular target: T1, Transcription regulator protein BACH1 (Homo sapiens); test: Inhibition of Bach1 in normal human lung fibroblasts assessed as induction of HMOX protein expression at 0.019 uM incubated for 16 to 18 hrs in presence of 0.078 uM Nrf2 activator Bardoxolone methyl by immunostaining relative to control
# [18] = molecular target: T1, Transcription regulator protein BACH1 (Homo sapiens); test: Inhibition of Bach1 in normal human lung fibroblasts assessed as induction of HMOX protein expression at 0.019 uM incubated for 16 to 18 hrs in presence of 0.156 uM Nrf2 activator Bardoxolone methyl by immunostaining relative to control
# [19] = molecular target: T1, Transcription regulator protein BACH1 (Homo sapiens); test: Inhibition of Bach1 in normal human lung fibroblasts assessed as induction of HMOX protein expression at 0.039 uM incubated for 16 to 18 hrs in presence of 0.156 uM Nrf2 activator Bardoxolone methyl by immunostaining relative to control
# [20] = molecular target: T1, Transcription regulator protein BACH1 (Homo sapiens); test: Inhibition of Bach1 in normal human lung fibroblasts assessed as induction of HMOX protein expression at 0.312 uM incubated for 16 to 18 hrs in presence of 0.156 uM Nrf2 activator Bardoxolone methyl by immunostaining relative to control
# [21] = molecular target: T1, Transcription regulator protein BACH1 (Homo sapiens); test: Inhibition of Bach1 in normal human lung fibroblasts assessed as induction of HMOX protein expression at 0.625 uM incubated for 16 to 18 hrs in presence of 0.156 uM Nrf2 activator Bardoxolone methyl by immunostaining relative to control
smiles,measurement,setting,value
CNC(=O)c1ccc2c(c1)nc(Nc1nc3ccc(OC(F)(F)F)cc3s1)n2C,fold change (FC),[1],15
same,fold change (FC),[2],17.7
same,fold change (FC),[3],3.24
same,fold change (FC),[4],2.32
same,fold change (FC),[5],16.1
same,fold change (FC),[6],2.88
same,fold change (FC),[7],3.04
same,fold change (FC),[8],4.72
same,fold change (FC),[9],8.04
same,fold change (FC),[10],13.6
same,fold change (FC),[11],17.1
same,fold change (FC),[12],5.31
same,fold change (FC),[13],13.2
same,fold change (FC),[14],14.7
same,fold change (FC),[15],17.8
same,fold change (FC),[16],15.6
same,fold change (FC),[17],22.3
same,fold change (FC),[18],22.9
same,fold change (FC),[19],17.2
same,fold change (FC),[20],19.2
same,fold change (FC),[21],18.7
